This is an account of results in US8883763B2 (Universite Joseph Fourier, priority 2010, dated 2014).

One test relates to bovine brain tubulin. Briefly: In vitro tubulin polymerization test (turbidimetry at 350 nm). Type of test: biochemical. The conditions noted are these: molecules at 50 μM, calculated at t=3000 s, DMSO control = 100%. The method, then:
Tubulin was purified from bovine brain using the polymerization-depolymerization process described by (Castoldi M and Popov A V. Protein Expr Purif. 2003, 32(1): pp 83-8).
The in vitro tubulin polymerization tests (at 50 μM) were carried out in the presence of GTP 1 mM in BRB80 buffer (80 mM K-PIPES pH 6.8, 1 mM MgCl2, 1 mM EGTA) at 37° C. The tests were carried out in 96-microwell plates (half-wells) (Costar plates, Corning #3695), in triplicate with a final volume of 70 μl. Tubulin assembly was carried out in the presence of compound 6 or its analogues (all used at a concentration of 50 μM) and was monitored by turbidimetry measurement at 350 nm using a spectrophotometer (Spectramax More, Molecular Devices).
Measurement of the effect of a molecule on polymerization was calculated at t=3000 s taking the value of the control at the same time as being equal to 100%.

The test system of a further test is HeLa cells. As to the kind of experiment: Indirect immunofluorescence: effect on HeLa cells (mitotic arrest, microtubule depolymerization). In kind it is cell-based, human. Also noted: key to Effect on Hela at 25 μM / Effect on Hela at 100 μM / Effect on Hela at 50 and 100 μM / Effect on Hela at 50 μM: —: −: no activity on the cells at 25 μM (if there is an effect at high concentrations, this is specified in the table).; *: weak activity (MA and/or slight depolymerization of the MTs and/or slight inhibition of proliferation),; **: average activity (MA and/or moderate depolymerization of the MTs and/or moderate inhibition of proliferation),; ***: strong activity (MA and/or pronounced depolymerization of the MTs and/or pronounced inhibition of proliferation),; ****: very strong activity (MA and/or very pronounced depolymerization of the MTs and/or strong inhibition of proliferation). The following applies: 25 μM, 24 hours; mitotic index and/or depolymerization of the MTs. The procedure:
The cells were cultured on slides in 24-well plates and incubated for 24 hours with molecule 6 at different concentrations from 1 to 10 μM.
Corresponding quantities of DMSO were added to the culture medium in the control wells.
The cells were fixed in a solution of PBS with 4% paraformaldehyde (PFA) and 0.1% glutaraldehyde (GA), for 15 minutes and centrifuged at 300 g for the last 10 minutes of the fixing. The slides were rinsed in PBS and the free aldehyde groups were reduced by two successive 5-minute incubations in PBS containing 1 mg/ml of NaBH4.
After one washing with PBS then another with PBST (PBS with 0.5% triton-X-100), the cells are incubated for 30 minutes at ambient temperature with anti α-tubulin monoclonal antibody solution (DM1A clone, Sigma # T6199) diluted to 1:200 in PBST. After 3 10-minute washings with PBST, the cells are incubated for 30 minutes at ambient temperature in a solution of goat anti-mouse polyclonal antibodies coupled with Alexa 488 (1:1000, Molecular Probes # A-11029) and phalloidin coupled with Texas red to label the actin (1:2000, Molecular Probes # T7471), in PBST also containing Hoechst 33258 (1 μg/ml) for labelling the DNA. After 3 10-minute washings in PBST, the slides are mounted on plates in Fluorsave™ mounting medium (Calbiochem #345789) and are observed and analyzed using an Axiovert 200M inverted fluorescence microscope (Zeiss®). The images are produced with a Plan-Apochromat 63× oil objective (Zeiss®) by means of a Coolsnap HQ camera (Roper Scientifics®) and with Metamorph acquisition software (Universal Imaging™ Corporation).
In order to evaluate the effect of the analogues of compound 6 on PHFs and HeLa cells, the immunofluorescence technique described above was used and adapted to a 96-well dish format. The cells were seeded in glass-bottomed 96-well dishes and incubated for 24 hours in the presence of different concentrations of molecules from 100 μM to 50 nM. And in the same way as described above, the cells were fixed and immunolabelled. Analysis of the phenotypes as well as counting the mitotic cells were carried out with the same microscope but using a ×40 objective (Olympus). The molecules were compared with each other with respect to the mitotic arrest induced on PHFs and HeLa cells at 25 and 0.3 μM.
The mitotic index and/or the depolymerization of the MTs were evaluated at 25 μM.

Another test concerns the target T1, PP1α (PP1CA) (Oryctolagus cuniculus, UniProt P62139).
T1 construct: purchased New England Biolabs P0754
Briefly: Protein phosphatase test (PP1 activity, DiFMUP fluorescent substrate). In kind it is biochemical. The conditions noted are these: PP1CA at 80 mU, fluorescent substrate (50 μM), molecules from 50 μM to 50 nM; read-out: PP1 Inhibition IC50. The procedure: FIG. 13 presents the graph showing the inhibition of the PP1Cα activity by compound 6 in vitro. PP1Cα (New England Biolabs, 30 mU/well) was incubated in the presence of compound 6 at different concentrations and a fluorescent substrate, diFMUP.
Determination of the 1050 was carried out with PP1CA at 80 mU in the presence of a fluorescent substrate
(50 μM) and different concentrations of molecules from 50 μM to 50 nM.
For the activity tests, PP1α (New England Biolabs # P0754) was used at a final concentration of 30 mU or 80 mU for the screening of all the analogues. 6,8-difluoro-4-methylumbelliferyl phosphate (DiFMUP, Invitrogen # D6567) was used as fluorescent substrate at a concentration of […]. All the tests were carried out in a final volume of 100 μl, at 37° C. in 96-microwell plates (Greiner #655096).
Compound 6, combretastatin A4 (CA-4) as well as all the analogues were diluted in 50 μl of PP1 buffer (100 mM Tris-HCl, pH 7.5, 4 mM DTT, 0.2 mM EDTA, 0.5 mM MnCl2) from 50 μM to 50 nM. Corresponding quantities of DMSO were added to control wells. PP1α (30 or 80 mU in 30 μl of PP1 buffer) was added to each well. After incubating for 15 minutes at AT, the substrate was added (in 20 μl of PP1 buffer). After incubating for 20 minutes at 37° C., the fluorescence was measured in a plate fluorometer at 355-460 nm in order to assay the phosphatase activity. The test was carried out three times in duplicate for each condition.

The test system of another test is HMEC cells. As to the kind of experiment: Proliferation of HMEC cells (GI50). In kind it is cell-based. The following applies: Homo sapiens, 120 h, 50 μM to 1 nM for 5 days. The method, then: The HMECs were seeded at 10% confluence and incubated with the molecules at different concentrations (from 50 μM to 1 nM) for 5 days. The GI50 (50% Growth Inhibition) defines the concentration inducing a 50% reduction in proliferation with respect to the control.

For orientation: IC50 means the concentration needed to halve the response being measured. The GI50 is the concentration giving 50% growth inhibition.

Each structure is given as a SMILES string.

T1 sequence (P62139 whole entry): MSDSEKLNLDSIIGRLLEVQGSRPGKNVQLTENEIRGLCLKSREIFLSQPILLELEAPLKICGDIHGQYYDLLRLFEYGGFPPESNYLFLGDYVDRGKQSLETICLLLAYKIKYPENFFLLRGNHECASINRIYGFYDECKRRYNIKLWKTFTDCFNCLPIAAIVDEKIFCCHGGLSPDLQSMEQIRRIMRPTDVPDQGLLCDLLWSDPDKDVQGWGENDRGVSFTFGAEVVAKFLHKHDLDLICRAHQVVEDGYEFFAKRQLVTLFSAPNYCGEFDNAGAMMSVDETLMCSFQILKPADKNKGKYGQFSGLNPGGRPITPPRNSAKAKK

Regarding `O=c1[nH]c(-c2ccc(O)cc2)cc2ccc(O)cc12` [Compound 57, 7-Hydroxy-3-(4-hydroxyphenyl)isoquinoline-1(2H)-one], the Tubulin polymerization inhibition result in the test with bovine brain tubulin was “+ ((+) signifies that the molecule induces tubulin assembly inhibition in vitro comprised between 6 and 25% of the DMSO control.)”. In the test on HeLa cells, the “Effect on Hela at 25 μM” value is “***”. In addition, on PP1α (PP1CA), the IC50 is above 50 µM. The compound also gave a GI50 in the test on HMEC cells of 1 to 25 µM.
Turning to `COc1ccc2c([N+](=O)[O-])c(-c3ccc(C#CC(C)(C)O)cc3)[nH]c(=O)c2c1` [Compound 59], in the test on bovine brain tubulin, the Tubulin polymerization inhibition entry is on record as “— ((−) signifies that the molecule induces little or no tubulin assembly inhibition in vitro: 0+ or − −5% of the DMSO control.)”. Further, the “Effect on Hela at 25 μM” value in the test on HeLa cells is “—”. The IC50 at PP1α (PP1CA) is 25 to 50 µM. This compound registered a GI50 with HMEC cells above 50 µM.
The corresponding values for `COc1ccc2c([N+](=O)[O-])c(-c3ccc(C#CC(C)(C)C)cc3)[nH]c(=O)c2c1` [Compound 60, 3-(4-(3,3-dimethylbut-1-ynyl)phenyl)-7-methoxy-4-nitroisoquinolin-1(2H)-one] are “— ((−) signifies that the molecule induces little or no tubulin assembly inhibition in vitro: 0+ or − −5% of the DMSO control.)”, “***”, at most 9 µM and 1 to 25 µM.
The corresponding values for `COc1ccc(-c2cc3ccc(OC)cc3c(=O)n2N)cc1` [Compound 61, 2-Amino-7-methoxy-3-(4-methoxyphenyl)isoquinoline-1(2H)-one] are “— ((−) signifies that the molecule induces little or no tubulin assembly inhibition in vitro: 0+ or − −5% of the DMSO control.)”, “—”, above 50 µM and above 50 µM.
Consider `COc1ccc(-c2c([N+](=O)[O-])c3ccc(OC)cc3c(=O)n2N)cc1` [Compound 62, 2-Amino-7-methoxy-3-(4-methoxyphenyl)-4-nitroisoquinoline-1(2H)-one], for which the Tubulin polymerization inhibition result in the test with bovine brain tubulin is “— ((−) signifies that the molecule induces little or no tubulin assembly inhibition in vitro: 0+ or − −5% of the DMSO control.)”. The “Effect on Hela at 25 μM” value in the test on HeLa cells is “***”. Moreover, the IC50 on PP1α (PP1CA) was above 50 µM. In addition, in the test on HMEC cells, the GI50 was 1 to 25 µM.
The corresponding values for `COc1ccc(-c2cc3ccc(OC)cc3c(OC)n2)cc1` [Compound 64, 1,7-Dimethoxy-3-(4-methoxyphenyl)isoquinoline] are “— ((−) signifies that the molecule induces little or no tubulin assembly inhibition in vitro: 0+ or − −5% of the DMSO control.)”, “—”, 10 to 24 µM and above 50 µM.
On to `COc1ccc(-c2cc3ccc(OC)cc3c(=O)n2C)cc1` [Compound 65, 7-Methoxy-3-(4-methoxyphenyl)-2-methylisoquinoline-1(2H)-one], for which the Tubulin polymerization inhibition entry in the test on bovine brain tubulin was “+ ((+) signifies that the molecule induces tubulin assembly inhibition in vitro comprised between 6 and 25% of the DMSO control.)”. Also, in the test with HeLa cells, the “Effect on Hela at 25 μM” value is reported as “*”. Besides, on PP1α (PP1CA), the half-maximal inhibitory concentration (IC50) was at least 50 µM. For the same compound, the GI50 in the test on HMEC cells was in the range of 1 to 25 µM.
Consider `COc1ccc(-c2c([N+](=O)[O-])c3ccc(OC)cc3c(=O)n2C)cc1` [Compound 66, 7-Methoxy-3-(4-methoxyphenyl)-2-methyl-4-nitroisoquinoline-1(2H)-one], for which the Tubulin polymerization inhibition entry in the test on bovine brain tubulin was “+ ((+) signifies that the molecule induces tubulin assembly inhibition in vitro comprised between 6 and 25% of the DMSO control.)”. The “Effect on Hela at 25 μM” value in the test with HeLa cells is recorded as “*”. Further, on PP1α (PP1CA), the IC50 is at most 9 µM. The same compound yielded a GI50 in the test on HMEC cells of 1 to 25 µM.
For the compound `COc1ccc(-c2cc3ccc(OC)cc3c(=O)n2CCO)cc1` [Compound 67, 2-(2-Hydroxyethyl)-7-methoxy-3-(4-methoxyphenyl)isoquinoline-1(2H)-one], in the test with bovine brain tubulin, the Tubulin polymerization inhibition result is on record as “— ((−) signifies that the molecule induces little or no tubulin assembly inhibition in vitro: 0+ or − −5% of the DMSO control.)”. Further, the “Effect on Hela at 25 μM” value in the test with HeLa cells is reported as “—”. The half-maximal inhibitory concentration (IC50) at PP1α (PP1CA) lay within 25 to 50 µM. This compound also returned a GI50 in the test on HMEC cells of 25 to 50 µM.
For `COc1ccc(-c2c([N+](=O)[O-])c3ccc(OC)cc3c(=O)n2CCO)cc1` [Compound 68, 2-(2-Hydroxyethyl)-7-methoxy-3-(4-methoxyphenyl)-4-nitroisoquinoline-1(2H)-one], the Tubulin polymerization inhibition result in the test with bovine brain tubulin is “— ((−) signifies that the molecule induces little or no tubulin assembly inhibition in vitro: 0+ or − −5% of the DMSO control.)”. In addition, the “Effect on Hela at 25 μM” value with HeLa cells is “—”. The 50% inhibitory concentration (IC50) on PP1α (PP1CA) was above 50 µM. The GI50 in the test with HMEC cells lay within 25 to 50 µM.
In the case of `COc1ccc(COc2nc(-c3ccc(OC)cc3)c(I)c3ccc(OC)cc23)cc1` [Compound 69, 4-Iodo-7-methoxy-1-(4-methoxybenzyloxy)-3-(4-methoxyphenyl)isoquinoline], the Tubulin polymerization inhibition result in the test on bovine brain tubulin is “+ ((+) signifies that the molecule induces tubulin assembly inhibition in vitro comprised between 6 and 25% of the DMSO control.)”. Besides, in the test with HeLa cells, the “Effect on Hela at 25 μM” value is on record as “—”. Also, the IC50 on PP1α (PP1CA) lay within 25 to 50 µM. The same compound came in with a GI50 in the test on HMEC cells of 25 to 50 µM.
In the case of `COc1ccc(COc2nc(-c3ccc(OC)cc3)c(C(F)(F)F)c3ccc(OC)cc23)cc1` [Compound 70, 7-Methoxy-1-(4-methoxybenzyloxy)-3-(4-methoxyphenyl)-4-(trifluoromethyl)isoquinoline], in the test with bovine brain tubulin, the Tubulin polymerization inhibition entry is “+ ((+) signifies that the molecule induces tubulin assembly inhibition in vitro comprised between 6 and 25% of the DMSO control.)”. Moreover, the “Effect on Hela at 25 μM” value with HeLa cells is on record as “—”. On PP1α (PP1CA), the IC50 was in the range of 10 to 24 µM. The same compound showed a GI50 with HMEC cells of 25 to 50 µM.
